From publication PMC8327158, “PEGylated AdipoRon derivatives improve glucose and lipid metabolism under insulinopenic and high-fat diet conditions” (Journal of Lipid Research, 2021)

System: HFD-fed wild-type mice
Test: Sphingolipid levels in tissues and serum of HFD-fed mice by mass spectrometry
Type: in vivo, mouse
Settings: average ± SD
Method: Six-week-old wild-type male mice were fed HFD for 4 weeks or 7 months In total, 5 mg/Kg of PBS, Adiporon, AdipoRonPEG5, AdipoRonPEG6HTL were injected twice a day for 5 days. After 5 days of treatment, systemic test is performed, and serum (Before and after treatment), subcutaneous, epididymal, liver, heart samples were harvested for qPCR and sphingolipid analysis.
Flash-frozen tissue samples (~40 mg) in a borosilicate glass tube were quenched with 2.0 ml of organic extraction solvent (isopropanol: ethyl acetate, 15:85; v:v) and homogenized with a mechanical tissue disruptor. Immediately afterward, 20 μl of organic internal standard solution was added (Ceramide/Sphingoid Internal Standard Mixture II diluted 1:10 in ethanol). The mixture was vortexed for 20 s and sonicated in ultrasonic bath for 40 min at 40°C. The organic extract was allowed to reach room temperature, and 1.5 ml of HPLC water was added and a two-phase liquid-liquid extraction was performed. The upper phase was transferred to a new clean tube, and the lower aqueous phase containing the protein pellet was re-extracted with additional 2.0 ml of organic extraction solvent. The organic phases were combined and dried under nitrogen stream at 40°C. Dried extracts were stored at –80°C until analysis. For analysis of ceramides and sphingoid base species, the dried residues were reconstituted in 200 μl of methanol. Sphingomyelins required a sample dilution of 1:50 in methanol prior to analysis. Serum sphingolipids were extracted using a similar methodology requiring 25 μl of serum.
Liver, subcutaneous adipose tissue, pancreas, pancreatic islets were initially homogenized in 500 μl of cold PBS using an ultrasonic probe disruptor and keeping the sample on ice during sonication. In total, 50 μl of aqueous homogenate was aliquoted for protein determination. In total, 400 μl of the lysate was immediately quenched in 2.0 ml of organic extraction solvent.
In total, 5 μl of reconstituted samples was injected into an LC/MS/MS system for the analysis of ceramides and sphingoid bases, and 1 μl injection was required for the analysis of sphingomyelins. The system consisted of a Shimadzu LCMS-8050 triple-quadrupole mass spectrometer with the dual ion source operating in electrospray positive ionization mode. The mass spectrometer is coupled to a Shimadzu Nexera X2 UHPLC system equipped with three solvent delivery modules LC-30AD, three degassing units DGU-20A5R, an autosampler SIL-30ACMP, and a column oven CTO-20AC operating at 40°C (Shimadzu Scientific Instruments, Columbia, MD). Six sphingoid bases (d18:1 sphingosine, d18:1 sphingosine-1-phosphate, d18:1 deoxysphingosine, d18:0 sphinganine, d18:0 sphinganine-1-phosphate, d18:0 deoxysphinganine) and […] ceramide species and their metabolites (C16:0, C16:0 dihydroceramide, C16:0 glucosylceramide, C16:0 lactosylceramide, C16:0 sphingomyelin, C18:0, C18:0 dihydroceramide, C18:0 glucosylceramide, C18:0 sphingomyelin, C18:1, C20:0, C22:0, C22:0 glucosylceramide, C24:0, C24:0 dihydroceramide, C24:0 lactosylceramide, C24:0 sphingomyelin, C24:1, C24:1 dihydroceramide, C24:1 glucosylceramide, C24:1 sphingomyelin). Quantitative analysis of sphingolipids was achieved using selective reaction monitoring scan mode. Lipid separation was achieved by reverse phase LC on a 2.1 (i.d.) × 150 mm Ascentis Express C8, 2.7 micron (Supelco, Bellefonte, PA) column under gradient elution, using three different mobile phases: eluent A consisting of methanol/water/formic acid, 600/400/0.8, v/v/v with 5 mM ammonium formate, eluent B consisting of methanol/formic acid, 1,000/0.8, v/v with 5 mM ammonium formate, and eluent C consisting of CH3OH/CH2Cl2 350/650. The concentration of each metabolite was determined according to calibration curves using the peak-area ratio of analyte versus corresponding internal standard. Calibration curves were generated using serial dilutions of each target analyte.

[1] = scWAT, 5 mg/kg twice a day 5 days
[2] = serum at day 0 (before treatment)
[3] = serum at day 5, 5 mg/kg twice a day 5 days

Compound: O=C(COc1ccc(C(=O)c2ccccc2)cc1)NC1CCN(Cc2ccccc2)CC1 [AdipoRon]
- Hexosyl 20:0 [1]: 615610.3 ± 235007.39 pg/mg
- Hexosyl 22:0 [1]: 6375434.2 ± 2782528.88 pg/mg
- Hexosyl 24:0 [1]: 21878746.0 ± 11579620.12 pg/mg
- Hexosyl 24:1 [1]: 11496554.3 ± 5647659.03 pg/mg
- Lactosyl 16:0 [1]: 45792.6 ± 45798.33 pg/mg
- Lactosyl 18:0 [1]: 0.0 ± 0.0 pg/mg
- Lactosyl 22:0 [1]: 49816.7 ± 23898.61 pg/mg
- Lactosyl 24:1 [1]: 86367.6 ± 22529.94 pg/mg
- Lactosyl C24:0 [1]: 55460.5 ± 33843.98 pg/mg
- Sphingaine1P [1]: 35443.6 ± 15686.23 pg/mg
- Sphinganine [1]: 29337.6 ± 16700.68 pg/mg
- Sphingosine [1]: 49182.2 ± 32181.22 pg/mg
- Sphingosine1P [1]: 37612.5 ± 17941.43 pg/mg
- dCer 16:0 [1]: 14580.7 ± 4393.04 pg/mg
- dCer 18:0 [1]: 17597.9 ± 5214.49 pg/mg
- dCer 20:0 [1]: 80869.1 ± 48824.3 pg/mg
- dCer 22:0 [1]: 84488 ± 14825 pg/mg
- dCer 24:0 [1]: 96632.5 ± 27938.2 pg/mg
- dCer 24:1 [1]: 93338.7 ± 29289.58 pg/mg
- Cer 14:0 [2]: 8402.0 ± 1707.95 pg/mg
- Cer 16:0 [2]: 25341.1 ± 4464.54 pg/mg
- Cer 18:0 [2]: 10061.4 ± 1406.12 pg/mg
- Cer 18:1 [2]: 0 pg/mg
- Cer 20:0 [2]: 144673.7 ± 32033.84 pg/mg
- Cer 22:0 [2]: 2303972.0 ± 309633.22 pg/mg
- Cer 24:0 [2]: 1443539.8 ± 157739.65 pg/mg
- Cer 24:1 [2]: 986691.7 ± 101968.89 pg/mg
- Cer 26:0 [2]: 10057.2 ± 2818.25 pg/mg
- Cer 26:1 [2]: 0 pg/mg
- DeoxySphinganie [2]: 0.0 ± 0.0 pg/mg
- Deoxysphingosine [2]: 0.0 ± 0.0 pg/mg
- Hexosyl 14:0 [2]: 2960.2 ± 601.74 pg/mg
- Hexosyl 16:0 [2]: 3024488.2 ± 155463.13 pg/mg
- Hexosyl 18:0 [2]: 47892.4 ± 4333.97 pg/mg
- Hexosyl 20:0 [2]: 182974.2 ± 30498.44 pg/mg
- Hexosyl 22:0 [2]: 12192915.9 ± 1475247.57 pg/mg
- Hexosyl 24:0 [2]: 1341147.2 ± 57498.17 pg/mg
- Hexosyl 24:1 [2]: 3535698.6 ± 346272.3 pg/mg
- Lactosyl 16:0 [2]: 94073.6 ± 8945.71 pg/mg
- Lactosyl 18:0 [2]: 0.0 ± 0.0 pg/mg
- Lactosyl 22:0 [2]: 60785.8 ± 9718.01 pg/mg
- Lactosyl 24:1 [2]: 85880.2 ± 22412.15 pg/mg
- Lactosyl C24:0 [2]: 103502.4 ± 17366.51 pg/mg
- Sphingaine1P [2]: 250934.3 ± 36218.42 pg/mg
- Sphinganine [2]: 45226.5 ± 8665.07 pg/mg
- Sphingosine [2]: 43193.4 ± 8183.0 pg/mg
- Sphingosine1P [2]: 774207.2 ± 25661.64 pg/mg
- dCer 16:0 [2]: 16437.5 ± 2669.42 pg/mg
- dCer 18:0 [2]: 10213.1 ± 2375.68 pg/mg
- dCer 20:0 [2]: 3716.7 ± 0.0 pg/mg
- dCer 22:0 [2]: 335078.3 ± 58715.16 pg/mg
- dCer 24:0 [2]: 212159.3 ± 42613.52 pg/mg
- dCer 24:1 [2]: 111963.9 ± 12779.64 pg/mg
- Cer 14:0 [3]: 9165.8 ± 853.97 pg/mg
- Cer 16:0 [3]: 17212.8 ± 1488.18 pg/mg
- Cer 18:0 [3]: 8049.1 ± 1033.29 pg/mg
- Cer 18:1 [3]: 0 pg/mg
- Cer 20:0 [3]: 135037.6 ± 17909.21 pg/mg
- Cer 22:0 [3]: 1736100.3 ± 185474.31 pg/mg
- Cer 24:0 [3]: 1412623.3 ± 289722.52 pg/mg
- Cer 24:1 [3]: 771667.5 ± 65564.62 pg/mg
- Cer 26:0 [3]: 11959.9 ± 2614.25 pg/mg
- Cer 26:1 [3]: 0 pg/mg
- DeoxySphinganie [3]: 0.0 ± 0.0 pg/mg
- Deoxysphingosine [3]: 0.0 ± 0.0 pg/mg
- Hexosyl 14:0 [3]: 2960.2 ± 601.74 pg/mg
- Hexosyl 16:0 [3]: 3736352.2 ± 191696.45 pg/mg
- Hexosyl 18:0 [3]: 63748.7 ± 18002.6 pg/mg
- Hexosyl 20:0 [3]: 245486.5 ± 74132.09 pg/mg
- Hexosyl 22:0 [3]: 9390882.1 ± 688490.25 pg/mg
- Hexosyl 24:0 [3]: 1430423.2 ± 157556.06 pg/mg
- Hexosyl 24:1 [3]: 3036231.9 ± 367214.43 pg/mg
- Lactosyl 16:0 [3]: 94265.2 ± 16983.56 pg/mg
- Lactosyl 18:0 [3]: 0.0 ± 0.0 pg/mg
- Lactosyl 22:0 [3]: 58253.0 ± 5503.82 pg/mg
- Lactosyl 24:1 [3]: 124049.2 ± 19300.14 pg/mg
- Lactosyl C24:0 [3]: 122340.7 ± 11760.71 pg/mg
- Sphingaine1P [3]: 423112.6 ± 48511.44 pg/mg
- Sphinganine [3]: 11725.4 ± 1939.02 pg/mg
- Sphingosine [3]: 18235.7 ± 1946.06 pg/mg
- Sphingosine1P [3]: 1139765.2 ± 69403.83 pg/mg
- dCer 16:0 [3]: 7198.9 ± 1199.82 pg/mg
- dCer 18:0 [3]: 4034.8 ± 845.83 pg/mg
- dCer 20:0 [3]: 2973.3 ± 1017.85 pg/mg
- dCer 22:0 [3]: 174957.8 ± 18878.67 pg/mg
- dCer 24:0 [3]: 105210.1 ± 6589.37 pg/mg
- dCer 24:1 [3]: 49553.1 ± 7051.68 pg/mg
